The subject of assay [1] is TNF-α in Human Primary Monocyte-Derived Dendritic Cells. The experiment in a line: Gardiquimod-Induced TNF-α in Human Primary Monocyte-Derived Dendritic Cells. It is filed as cell-based. The conditions noted are these: Dendritic cell, IFNγ-primed monocyte-derived dendritic cells, 4 μg/ml Gardiquimod, 6 hours, TNF-α ELISA, read-out: TNFα (DC, GARD) (IC50). Put shortly: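 Monocytes differentiated 7 days with GM-CSF and IL-4, then primed 24 h with 50 ng/ml IFN-γ. Compound added 1 h before 6 h stimulation with 4 μg/ml Gardiquimod, 0.5% DMSO final. Supernatant TNF-α measured by chemiluminescent ELISA; EC50 from curve fitting.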
In general terms: In an ELISA, binding on a coated surface is turned into a signal by an enzyme label.

For a further assay, the target named is IRAK4 (Homo sapiens (Human), UniProt Q9NWZ3). The experiment in a line: IRAK4 ADP-Glo Assay. It is filed as biochemical. Particulars: MBP substrate. Put shortly:
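Human IRAK4 kinase reaction with MBP substrate plus ATP in Tris-HCl/MgCl2/BSA/DTT buffer, pH 7.4, run 60 min at room temperature or 30 min at 30 °C. ADP formed was measured by ADP-Glo luminescence after ATP depletion (40 min) and detection reagent (30 min).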
Background: ADP-Glo turns the ADP formed in a reaction into a luminescent signal.

In a further assay the test system is IL23p19 in THP-1 Cells. The experiment in a line: LPS Induced IL23p19 in THP-1 Cells (with IFNγ Primed) Assay. It is filed as cell-based. The conditions noted are these: Homo sapiens, THP-1, 18 h, read-out: IL23 (THP, LPS) (IC50, μM). Put shortly:
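THP-1 cells (50K/well) primed with IFNγ (50 ng/mL) about 18 h, then given compound and stimulated with LPS for 18 h at 37 °C. Secreted IL-23p19 measured by sandwich ELISA with chemiluminescent read-out, giving EC50. Cell Titer Glo used on the remaining cells for toxicity.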

The subject of the next assay is TNF-α in human PBMCs. The experiment in a line: R848-induced TNF-α in human PBMCs Assay. The conditions noted are these: Homo sapiens, PBMC, 4 h, read-out: TNFα (PBMC, R848) (IC50, μM). It is filed as cell-based. In a few lines: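 Human PBMCs at 200K/well were pretreated with compound, then R848-stimulated for 4 h at 37 °C, 5% CO2. Supernatant TNF-α quantified by chemiluminescent ELISA; EC50 from curve fitting.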

Chain of IRAK4 (Q9NWZ3 whole entry): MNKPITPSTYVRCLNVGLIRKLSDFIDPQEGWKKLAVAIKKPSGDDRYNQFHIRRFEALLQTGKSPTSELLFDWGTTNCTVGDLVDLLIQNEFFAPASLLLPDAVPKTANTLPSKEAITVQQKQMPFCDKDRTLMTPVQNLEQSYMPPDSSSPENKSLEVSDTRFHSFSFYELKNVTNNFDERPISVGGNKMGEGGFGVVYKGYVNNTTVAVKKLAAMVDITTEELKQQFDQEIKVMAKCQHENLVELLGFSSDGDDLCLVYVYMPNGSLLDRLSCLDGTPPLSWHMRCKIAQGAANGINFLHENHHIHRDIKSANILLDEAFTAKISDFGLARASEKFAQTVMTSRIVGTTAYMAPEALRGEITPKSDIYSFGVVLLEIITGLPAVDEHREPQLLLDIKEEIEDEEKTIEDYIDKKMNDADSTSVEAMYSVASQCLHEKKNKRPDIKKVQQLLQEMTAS

The IC50 is the midpoint of a concentration-inhibition curve. Take `CC(C)Oc1cc2c(O[C@@H]3CCCN(C(=O)CC#N)C3)ncc(-c3cnn(C4CCOCC4)c3)c2cc1C(N)=O` [Compound I-117, (R)-1-((1-(2-cyanoacetyl)piperidin-3-yl)oxy)-7-isopropoxy-4-(1-(tetrahydro-2H-pyran-4-yl)-1H-pyrazol-4-yl)isoquinoline-6-carboxamide]: the IC50 in assay [1] is 1030 nM; at IRAK4, 25.3 nM; in the assay with IL23p19 in THP-1 Cells it was 3.91 µM; in the assay on TNF-α in human PBMCs it was 7.24 µM.
For `CC(C)Oc1cc2c(O[C@@H]3CCCN(C(=O)CC#N)C3)ncc(-c3cnn(CC4CCOCC4)c3)c2cc1C(N)=O` [Compound I-118, (R)-1-((1-(2-cyanoacetyl)piperidin-3-yl)oxy)-7-isopropoxy-4-(1-((tetrahydro-2H-pyran-4-yl)methyl)-1H-pyrazol-4-yl)isoquinoline-6-carboxamide], the IC50 in assay [1] stood at 1500 nM; at IRAK4, 20.4 nM; in the assay on IL23p19 in THP-1 Cells it was 4.2 µM; in the assay on TNF-α in human PBMCs, 6.5 µM.
In the same order, the values of `CC(C)Oc1cc2c(O[C@@H]3CCCN(C(=O)CC#N)C3)ncc(-c3cnn(CCC4CCOCC4)c3)c2cc1C(N)=O` [Compound I-119, (R)-1-((1-(2-cyanoacetyl)piperidin-3-yl)oxy)-7-isopropoxy-4-(1-(2-(tetrahydro-2H-pyran-4-yl)ethyl)-1H-pyrazol-4-yl)isoquinoline-6-carboxamide] are 1020 nM, 18.4 nM, 2.22 µM and 2.51 µM.
For the compound `CC(C)Oc1cc2c(O[C@@H]3CCCN(C(=O)CC#N)C3)ncc(-c3cnn([C@H]4C[C@@H](N(C)C)C4)c3)c2cc1C(N)=O` [Compound I-120, 1-(((R)-1-(2-cyanoacetyl)piperidin-3-yl)oxy)-4-(1-(cis-3-(dimethylamino)cyclobutyl)-1H-pyrazol-4-yl)-7-isopropoxyisoquinoline-6-carboxamide], the IC50 in assay [1] came to 423 nM; on IRAK4, 8.4 nM; with IL23p19 in THP-1 Cells it was 2.83 µM; with TNF-α in human PBMCs, 0.227 µM.
With `CC(C)Oc1cc2c(O[C@@H]3CCCN(C(=O)CC#N)C3)ncc(-c3cnn(C4CCN(C(=O)OC(C)(C)C)CC4)c3)c2cc1C(N)=O` [Compound I-121, tert-butyl (R)-4-(4-(6-carbamoyl-1-((1-(2-cyanoacetyl)piperidin-3-yl)oxy)-7-isopropoxyisoquinolin-4-yl)-1H-pyrazol-1-yl)piperidine-1-carboxylate], the IC50 in assay [1] was 1020 nM; on IRAK4, 12.9 nM; in the assay with IL23p19 in THP-1 Cells, 1.9 µM; with TNF-α in human PBMCs, 1.76 µM.
In the same order, the values of `CC(C)Oc1cc2c(O[C@@H]3CCCN(C(=O)CC#N)C3)ncc(-c3cnn(C4CCN(C)CC4)c3)c2cc1C(N)=O` [Compound I-123, (R)-1-((1-(2-cyanoacetyl)piperidin-3-yl)oxy)-7-isopropoxy-4-(1-(1-methylpiperidin-4-yl)-1H-pyrazol-4-yl)isoquinoline-6-carboxamide] are 217 nM, 19.2 nM, 4.9 µM and 0.145 µM.
In the same order, the values of `CCO[C@H]1CC[C@H](n2cc(-c3cnc(O[C@@H]4CCCN(C(=O)CC#N)C4)c4cc(OC(C)C)c(C(N)=O)cc34)cn2)CC1` [Compound I-124, 1-(((R)-1-(2-cyanoacetyl)piperidin-3-yl)oxy)-4-(1-(trans-4-ethoxycyclohexyl)-1H-pyrazol-4-yl)-7-isopropoxyisoquinoline-6-carboxamide] are 352 nM, 6.8 nM, 0.609 µM and 12.2 µM.
